# From US20060252683A1, “Preparation of a peptide compound (SYRAPRO-2000) and its use for the activation of protein phosphatase-2A1 enzyme” (priority 2005, published 2006)
# Columns and labels:
# [1] = tested on: protein phosphatase-2B; experiment: Protein phosphatase-2B assay; format: biochemical, pig; settings: various concentrations
# Description: (§1) Protein phosphatase-1 (squares), protein phosphatase-2A1 (circles), protein phosphatase-2B (triangles) and protein phosphatase-2C (stars) were assayed in the presence of various concentrations of HIV-1 Vpr^71-96. 100 percent protein phosphatase activity is equivalent to 0.005 unit. Similar results were obtained in 3 independent experiments.
# (§2) ^32P-labeled phosphorylase a was prepared by phosphorylation of phosphorylase b with phosphorylase kinase as described in (Cohen 1988). ^32P-labeled casein was prepared by phosphorylation of casein with protein kinase A as described in (Tung 1986). Protein phosphatase-1 was purified from rabbit skeletal muscle as described in (Cohen 1988). Protein phosphatase-1 inhibitor-2 was purified from rabbit skeletal muscle as described in (Yang 1981). Protein phosphatase-2A0 and protein phosphatase-2A1 from pig brain and from pig liver were purified as described in (Tung 1985). Protein phosphatase-2A0 and protein phosphatase-2A1 from pig adipose tissue were highly purified by successive chromatography of pig subcutaneous adipose tissue extracts on DEAE Sepharose, Poly-L-lysine Agarose, Sephacryl S-300 HR and thiophosphorylase-a-Sepharose-4B as described in (Tung 1985). Protein phosphatase-2B was purified from pig brain as described in (Tung 1986). […]
# [2] = biological target: T1, protein phosphatase-1 (Oryctolagus cuniculus, UniProt P62139); experiment: Protein phosphatase-1 assay; format: biochemical, rabbit; settings: various concentrations
# T1 construct: Protein phosphatase-1 was purified from rabbit skeletal muscle; from tissue; host or cells: rabbit skeletal muscle
# Description: as §1, §2
# [3] = Cell viability (tryphan blue) and cell death of Jurkat cells; format: cell-based, human; settings: human, Jurkat cells (CD4+ T cell line), 1000 nM, four hours of incubation, read-out: treated cells non viable (tryphan blue staining)
# Description: Panel A, Jurkat cells (a CD^4+ T cell line) were grown in RPMI 1640 and 10% (v/v) fetal bovine serum. Cells (10^6 cells per ml) were treated (+) or not (−) with 1000 nM SYRAPRO-2000. Cell viability was then determined by counting the cells following tryphan blue staining after 1, 2 and 4 hours of incubation. Panel B, Following treatment with SYRAPRO-2000 for 1, 2 and 4 hours as indicated, Jurkat cells (10^6/ml) were washed with RPMI plus 2% fetal bovine serum and then deposited onto glass slides by cytospinning. Phase contrast images were then obtained with white light emission on a Zeiss Axioplan 2 imaging universal microscope (Thornwood, N.Y.). […]
# Jurkat cells are grown in RPMI 1680 medium supplemented with 5% (v/v) fetal bovine serum and antibiotics and treated or not with 1 μM of SYRAPRO-2000 for 1 hour, 2 hours and 4 hours. Following treatment with SYRAPRO-2000, cell viability are then determined by counting the cells following tryphan blue staining. […]
# Following treatment of cells with SYRAPRO-2000, cells were examined by phase contrast microscopy or by fluorescent microscopy following staining with FITC labeled annexin V (apoptotic cell death) and propidium iodide (oncolytic cell death). Cells were analyzed on a Zeiss Axioplan 2 imaging universal microscope (Thornwood, N.Y.). […] Green (FITC labeled annexin V) and red (propidium iodide) fluorescence images were obtained. […]
# T1 sequence (P62139 whole entry): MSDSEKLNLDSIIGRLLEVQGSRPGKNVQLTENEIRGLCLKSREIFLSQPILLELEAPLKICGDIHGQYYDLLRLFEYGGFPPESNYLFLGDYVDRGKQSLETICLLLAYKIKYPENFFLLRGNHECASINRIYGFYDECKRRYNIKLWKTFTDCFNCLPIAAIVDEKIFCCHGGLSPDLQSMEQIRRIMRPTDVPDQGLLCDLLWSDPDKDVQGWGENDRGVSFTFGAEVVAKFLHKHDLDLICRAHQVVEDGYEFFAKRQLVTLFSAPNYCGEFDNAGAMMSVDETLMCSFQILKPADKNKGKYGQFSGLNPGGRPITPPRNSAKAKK
compound,measurement,setting,value
CC[C@H](C)[C@H](NC(=O)[C@H](CCCNC(=N)N)NC(=O)[C@H](CO)NC(=O)[C@H](Cc1c[nH]cn1)NC(=O)[C@H](CCCNC(=N)N)NC(=O)[C@H](CS)NC(=O)CNC(=O)[C@@H](NC(=O)[C@H](CCCNC(=N)N)NC(=O)[C@H](Cc1ccccc1)NC(=O)[C@@H](N)Cc1c[nH]cn1)[C@@H](C)CC)C(=O)NCC(=O)N[C@H](C(=O)N[C@H](C(=O)N[C@@H](CCCNC(=N)N)C(=O)N[C@@H](CCC(N)=O)C(=O)N[C@@H](CCCNC(=N)N)C(=O)N[C@@H](CCCNC(=N)N)C(=O)N[C@@H](C)C(=O)N[C@@H](CCCNC(=N)N)C(=O)N[C@@H](CC(N)=O)C(=O)NCC(=O)N[C@@H](C)C(=O)N[C@@H](CO)C(=O)N[C@@H](CCCNC(=N)N)C(=O)N[C@@H](CO)C(=O)O)[C@@H](C)O)C(C)C [SYRAPRO-2000],effect on activity of protein phosphatase-2B,[1],negligible effect
same,effect on activity of protein phosphatase-1,[2],negligible effect
same,"cytotoxicity at 4 h, 1 µM",[3],~60%
